Like-named read-outs stand apart in the source and are kept apart here. Each block holds one compound with its values, some of them ahead of it.
Tests used:
[1] = test system: T cell leukemia line Jurkat; assay: Jurkat T cell leukemia growth, viable cell count with trypan blue; assay type: cell-based, human
Text: Viable cells in each culture were counted. On days 4 and 6 nutrients were replenished.
The T cell leukemia line Jurkat was transferred from normal, FCS-containingmedium to serum-free medium ITLB. […] Cells were counted daily differentially in the presence of trypan blue, and the total number of cells generated in each culture plotted in FIG. 3A. It is evident that cells deprived of retinol decline in numbers as compared to cells with retinol.

[2] = test system: IL-2 receptor; assay: IL-2 receptor expression of activated T cells; assay type: cell-based; settings: presence or absence of retinol or 14-HRR, previous unpublished work
[3] = target: cellular retinoic acid binding protein (CRABP I) (Homo sapiens, UniProt P29762); assay: Dissociation constant to cellular retinoic acid binding protein by fluorometric titration; settings: no binding = no significant binding could be detected
Method: (§1) Apo-protein (1-3 μM) was titrated with the appropriate all-trans-retinoid dissolved in ethanol and the titration was followed by measuring the increase in the fluorescence of the retinoids upon binding. Reaction mixtures included 150 mM NaCl, 0.1 mM DTT, and 25 mM HEPES; pH's were 7.0 and 7.4, respectively. […] Data analyses were performed as described by Cogan et al. (14). Human RBP was purified from human serum by means of a transthyretin column (15). Human CRBP I and CRABP I were gifts from Dr. W. S. Blaner (Columbia University, New York, N.Y.) and Dr. J. Napoli (SUNY, Buffalo, N.Y.), respectively.

[4] = test system: interleukin-2 (IL-2); assay: IL-2 release by stimulated thymocytes, CTLL assay; assay type: cell-based, murine; settings: for IL-2 production: presence or absence of retinol or 14-HRR, previous unpublished work
Method: (§2) Murine thymocytes (2×10^5 /well in triplicates) were cultured in ITLB medium in 96-well plates coated with 10 μg/ml anti-CD3^ε mAB (12) as described (3). […] Cell proliferation was tested on day 3 by ^3 H thymidine incorporation into DNA. […] The results of cell proliferation assays performed at 72 hours are shown. […] CTLL proliferation was measured by ^3 H thymidine incorporation into DNA (FIG. 4D). The standard deviation of triplicate measurements were <10%.

[5] = test system: CTLL cell line; assay: CTLL cell line proliferation, 3H thymidine incorporation; assay type: cell-based; settings: for CTLL proliferation: control experiments; for CTLL responsiveness to retinol and AR: with recombinant IL-2, broad dose ranges, data not shown
Method: as §2

[6] = test system: Murine thymocytes; settings: T cell receptor-generated signals, serum-free medium, ref. (3); cited from earlier work
[7] = test system: Il-2 dependent TH cell clones and T cell hybridoma; assay: Growth of Il-2 dependent TH cell clones and T cell hybridoma; assay type: cell-based; settings: previous unpublished observations
[8] = target: T1, cellular retinol binding protein (CRBP I) (Homo sapiens, UniProt P09455); assay: Dissociation constant to cellular retinol binding protein by fluorometric titration; settings: for Kd: fluorometric titration, 150 mM NaCl, 0.1 mM DTT, 25 mM HEPES
T1 sequence (P09455 1-135): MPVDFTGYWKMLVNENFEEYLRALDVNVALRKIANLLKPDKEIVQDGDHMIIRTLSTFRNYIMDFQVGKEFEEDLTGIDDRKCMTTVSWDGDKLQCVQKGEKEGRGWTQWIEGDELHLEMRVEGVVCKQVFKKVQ
Method: as §1

[9] = target: T2, serum retinol binding protein (RBP) (Homo sapiens, UniProt P02753); assay: Dissociation constant to serum retinol binding protein by fluorometric titration
T2 construct: Human RBP was purified from human serum; from tissue; host or cells: human serum
Method: as §1

[10] = test system: Human B lymphoblastoid cells (5/2); assay: B lymphoblastoid cell proliferation, 3H thymidine incorporation; assay type: cell-based
Method: (§3) Human B lymphoblastoid cells (e.g., cell line 5/2) were cultured in medium RPMI 1640 with 7% fetal calf serum. On the day of the assay, cells were washed and transferred to serum-free medium, RPMI 1640 supplemented with insulin, transferrin, linoleic acid, and bovine albumin (ITLB medium) as described (3). Test reagents at indicated concentrations were added to triplicate cultures of […] in 96 well plates (final volume of 200 μl/well) and cell proliferation tested 1 day (FIGS. 2B, 2C, 2D) or 3 days later (FIG. 2A) by ^3 H thymidine incorporation into DNA. […] Three additional human lymphoblastoid cell lines, Hom 2, Jest and Ducaf were tested under the conditions specified for FIG. 2A (FIG. 2D).

[11] = test system: 14-HRR synthesis; assay: Metabolic rate of 14-HRR synthesis from 3H labelled retinol; assay type: cell-based; settings: hundredfold excess of AR, data not shown
Text: Therefore, competitive inhibition at the level of CRBP is a realistic possibility to explain the retinol-AR antagonism. […] By inference, a separate 14-HRR binding protein/receptor, as yet to be defined, may exist.

[12] = test system: B lymphocyte; assay: B lymphocyte proliferation (summary statement); assay type: cell-based
[13] = test system: DU145; assay: Tumor cell sensitivity to anhydroretinol, prostate carcinoma; assay type: cell-based; settings: DU145, FIG. 6A
Text: (§4) FIGS. 6A-6B show titrations for the inhibition by AR of prostate carcinoma cell lines DU145, PC-3 and LNCAP.

[14] = test system: LNcAP; assay: as above; assay type: cell-based; settings: FIG. 6C
Text: as §4

[15] = test system: SF 21 cells; assay: Metabolites of [3H] retinol in SF 21 cells, HPLC; assay type: in vitro ADME, insect; settings: SF 21, 4 hours, FIG. 1B
Method: (§5) After 4 hours (FIGS. 1A and 1B) or after 16 hours (FIG. 1C) retinoids were extracted from the washed cell pellet according to the procedure of McClean et al. (16). Retinoids were separated on an analytical C18 reversed-phase column and detected with an on-line scintillation counter using the methodology described in Buck et al. (4). […] The peak eluting at minute 29 is the all-trans anhydroretinol, whereas the companion peaks at minute 27 and 28 represent cis-isomers (14). All isomers yield spectra with characteristic vibronic fine structure similar to the spectrum of all-trans AR.

[16] = test system: lymphocytes; assay: Metabolism by lymphocytes to retinol or 14-HRR; assay type: in vitro ADME; settings: unpublished data
[17] = test system: lymphocytes; assay: Cultures of lymphocytes with 14-HRR as agonist; assay type: cell-based; settings: FIGS. 2B and 4B
[18] = test system: Human lymphoblastoid 5/2 cells; assay: Metabolites of [3H] retinol in lymphoblastoid 5/2 cells, HPLC; assay type: in vitro ADME; settings: 5/2, 16 hours, FIG. 1C
Method: as §5

[19] = test system: murine B cell lymphoma; assay: Inhibition of murine B cell lymphoma by AR; assay type: cell-based
[20] = test system: resting T lymphocytes; assay: Activation of resting T lymphocytes (summary statement); assay type: cell-based
[21] = test system: SF-9 cells; assay: Metabolites of [3H] retinol in SF-9 cells, HPLC; assay type: in vitro ADME, insect; settings: SF-9, 4 hours, FIG. 1A
Method: as §5

[22] = test system: human lymphoblastoid cell lines; assay: B lymphoblastoid cell proliferation, 3H thymidine incorporation (Hom 2, Jest, Ducaf); assay type: cell-based; settings: several randomly selected lines, FIG. 2D
Method: as §3

[23] = test system: Murine thymocytes; assay: Activation of murine thymocytes with anti-CD3, 3H thymidine incorporation; assay type: cell-based
Method: as §2

cellular retinoic acid binding protein (CRABP I), sequence (P29762 whole entry): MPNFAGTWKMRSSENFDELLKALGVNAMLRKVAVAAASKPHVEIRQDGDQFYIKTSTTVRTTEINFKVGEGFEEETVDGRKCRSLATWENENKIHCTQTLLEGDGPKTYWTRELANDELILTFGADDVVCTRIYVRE

dissociation constant CRABP I (binding in words) [3]: no binding
Kd [8]: 13 nM
Compound: CC1=C(/C=C/C(C)=C/C=C/C(C)=C/CO)C(C)(C)CCC1 [retinol, all-trans retinol]
rescue of Jurkat cells on reintroduction of retinol ([1]; after day 6): allows rescue of the cells
dependence of Jurkat cells on retinol ([1]; serum-free medium ITLB, 4×10^-6 M retinol): retinol-dependent
IL-2 receptor expression [2]: unaffected
IL-2 production [4]: unaffected
CTLL proliferation [5]: completely inert
CTLL responsiveness to retinol and AR [5]: independent of either retinoid
activation of resting thymocytes, cofactor dependence [6]: dependent on retinoid cofactors
growth dependence on retinol and 14-HRR [7]: grow independently

Compound: CC(C=CC=C(C)C(O)CO)=CC=C1C(C)=CCCC1(C)C (stereo not drawn) [Compound 14-HRR, 14-hydroxy-4,14-retro-retinol]
Kd [9]: 120 nM
IL-2 receptor expression [2]: unaffected
dissociation constant CRABP I (binding in words) [3]: no binding
IL-2 production [4]: unaffected
CTLL proliferation [5]: completely inert
activation of resting thymocytes, cofactor dependence [6]: dependent on retinoid cofactors
growth dependence on retinol and 14-HRR [7]: grow independently
binding to CRBP [8]: does not bind to CRBP with appreciable affinity
dissociation constant CRBP I (binding in words) ([8]; no binding = no significant binding could be detected): no binding

Kd ([9]; fluorometric titration, 150 mM NaCl, 0.1 mM DTT, 25 mM HEPES, read-out: dissociation constant RBP): 20 nM
dissociation constant CRABP I (binding in words) [3]: no binding
AR as metabolite of [3H] retinol [15]: predominant metabolite
metabolism by lymphocytes to retinol or to 14-HRR [16]: not metabolized
AR as metabolite of [3H] retinol [18]: also produced AR
AR as metabolite of [3H] retinol [21]: undetectable
Kd [8]: 23 nM
Compound: C=CC(C)=CC=CC(C)=CC=C1C(C)=CCCC1(C)C [AR, Anhydroretinol]
antagonism of 14-HRR ([10]; AR 5×10^-6 M vs 1.3×10^-6 M 14-HRR, FIG. 2B): clear antagonism
antagonism of retinol ([10]; AR 5×10^-6 M vs 3.7×10^-6 M retinol, FIG. 2A): clear antagonism
support of B cell proliferation ([10]; FIG. 2A): nor does it support B cell proliferation
inhibition of B cell cultures ([10]; graded concentrations of fetal calf serum (FIG. 2C) or RBP/retinol complex (data not shown)): strongly inhibitory
ID50 values ([10]; graded concentrations of fetal calf serum or RBP/retinol complex): comparable to those seen in retinol-supplemented cultures
inhibitory dose (ID50) ([10]; serum-free medium supplemented with retinol or 14-HRR): dependent on the agonist concentration
competitive antagonism of retinol or 14-HRR ([10]; serum-free medium with retinol or 14-HRR, FIGS. 2A, 2B): competitive antagonist
growth inhibition of B cell cultures ([10]; ten percent fetal bovine serum containing medium, FIG. 2C): strong growth inhibition
metabolic rate of 14-HRR synthesis [11]: no change
B lymphocyte proliferation [12]: block B lymphocyte proliferation
aid to B cell proliferation [12]: not to aid B cell proliferation
inhibition by AR, relative sensitivity [13]: highest sensitivity
inhibition by AR, relative sensitivity [14]: appears to be insensitive
IL-2 release ([4]; supernatants after 18 hours, FIG. 4D): did not interfere with IL-2 release
inhibition of lymphocyte cultures with 14-HRR as agonist [17]: reversibly inhibits
CTLL proliferation [5]: completely inert
CTLL responsiveness to retinol and AR [5]: independent of either retinoid
sensitivity to inhibition by AR [19]: all proved sensitive to inhibition
activation of resting T lymphocytes [20]: block B lymphocyte proliferation as well as activation of resting T lymphocytes
sensitivity to inhibition by AR [22]: all proved sensitive to inhibition
thymidine uptake of cycling thymocytes ([23]; AR given 2 days after activation, FIG. 4C): able to reduce the thymidine uptake of cycling thymocytes
inhibition of thymocyte activation ([23]; retinol or 14-HRR as cofactor, anti-CD3, FIGS. 4A, 4B): pronounced

Source: US5883136A, “Anhydroretinol and derivatives thereof as antagonists of immune responses and inhibitors of cancer cell growth” (Sloan-Kettering Institute for Cancer Research, priority 1995, dated 1999)
